These are literature values, as cited in article PMC3974845 (International journal of peptide research and therapeutics, 2013).

Where two headings read alike, the source gives them in different places. [ ]: non-standard residue; d: D form. pY = N[C@@H](Cc1ccc(OP(=O)(O)O)cc1)C(=O)O

The series concerns the target full length Stat3 (SH2 domain) (Homo sapiens, UniProt P40763).
Where [1] appears, read: affinity for Stat3, Table 1, ref Mandal et al. 2009b.
[2] abbreviates: affinity for Stat3, Table 1, ref Mandal et al. 2011.
[3] abbreviates: affinity for Stat3, Table 1, ref Coleman et al. 2005.

Sequence of full length Stat3 (SH2 domain) (P40763 whole entry, species assumed, the tested form may be a part): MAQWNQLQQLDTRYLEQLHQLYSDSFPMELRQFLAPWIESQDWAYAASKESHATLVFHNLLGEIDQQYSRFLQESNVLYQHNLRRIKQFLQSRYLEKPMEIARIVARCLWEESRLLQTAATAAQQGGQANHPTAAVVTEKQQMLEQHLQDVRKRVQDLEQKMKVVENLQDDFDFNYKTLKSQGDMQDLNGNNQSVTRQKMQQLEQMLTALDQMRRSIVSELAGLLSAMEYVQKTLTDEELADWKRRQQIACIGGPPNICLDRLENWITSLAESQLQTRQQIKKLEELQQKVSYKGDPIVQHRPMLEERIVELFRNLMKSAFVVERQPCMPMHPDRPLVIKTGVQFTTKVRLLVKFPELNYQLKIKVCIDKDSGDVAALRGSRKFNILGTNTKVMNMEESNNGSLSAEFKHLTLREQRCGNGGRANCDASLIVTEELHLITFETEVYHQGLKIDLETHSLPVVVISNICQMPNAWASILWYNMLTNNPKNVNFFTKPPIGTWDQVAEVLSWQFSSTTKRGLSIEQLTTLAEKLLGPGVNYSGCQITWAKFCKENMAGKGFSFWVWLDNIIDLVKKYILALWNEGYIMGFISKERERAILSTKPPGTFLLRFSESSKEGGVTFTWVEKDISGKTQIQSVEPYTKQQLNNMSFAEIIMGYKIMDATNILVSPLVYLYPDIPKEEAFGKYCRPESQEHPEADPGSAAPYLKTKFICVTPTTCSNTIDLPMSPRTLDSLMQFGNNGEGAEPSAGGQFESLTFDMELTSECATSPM

Take pCinn-Leu-mPro-Gln-NHBn [Compound 14]: the IC50 under setting [1] was 68 ± 8 nM.
For “βMpCinn-Leu-mPro-Gln- NHBn [Compound 16]”, the IC50 under setting [2] was 46 ± 5 nM.
With βMpCinn-Leu-Pro-Gln- NHBn [Compound 15], the IC50 under setting [2] was 70 ± 15 nM.
For the substance “Ac-pTyr-Leu-mPro-Gln-Val- NH2 [Compound 12]”, under setting [3], the IC50 was 265 ± 14 nM.
Take βMpCinn-Leu-mPro-Apa [Compound 18]: the IC50 under setting [2] is 88 ± 11 nM and the IC50 (βMpCinn-Leu-Xaa-Apa series, fluorescence polarization, ref Mandal et al. 2011) was 88 ± 11 nM.
For pCinn-Leu-Pro-Gln-NHBn [Compound 13], the IC50 under setting [1] is 138 ± 8 nM.
As to “Ac-pTyr-Leu-Pro-Gln-Val- NH2 (Ac-[pY]LPQV-NH2; SMILES CC(=O)N[C@@H](Cc1ccc(OP(=O)(O)O)cc1)C(=O)N[C@@H](CC(C)C)C(=O)N1CCC[C@H]1C(=O)N[C@@H](CCC(N)=O)C(=O)N[C@H](C(N)=O)C(C)C) [Compound 11]”, the IC50 under setting [3] is 739 ± 31 nM.

Usually IC50 stands for the concentration at which inhibition is half-maximal.
